Patent US20140073634A1 (Institute For Applied Cancer Science/The University of …, priority 2012, published 2014)

tested on: 293T-HRE-GFP-luc cells; assay: Cell-based reporter assay for IC50 determinations (HRE-luciferase, hypoxia); conditions: 6 h, 6 hrs hypoxia (1% O2), luminescence
How it was run: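 IC50s come from four-parameter logistic fits of luminescence. Compounds in 1:3 DMSO series were added to 293T-HRE-GFP-luc cells, 30 min normoxia preceding 6 hrs at 1% O2, 37° C; HRE-luciferase signal was then measured with Steadylite Plus reagent.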

Row | SMILES | IC50
1 | CS(=O)(=O)CCCOc1cccc(Cn2cc(-c3noc(-c4ccc(OC(F)F)cc4)n3)ccc2=O)c1 [Example 207] | < 100 nM
2 | COCCOc1cccc(Cn2cc(-c3noc(-c4ccc(C(C)=O)cc4)n3)ccc2=O)c1 [Example 208, 5-[5-(4-acetylphenyl)-1,2,4-oxadiazol-3-yl]-1-{[3-(2-methoxyethoxy)phenyl]methyl}-1,2-dihydropyridin-2-one] | < 100 nM
3 | COCCOc1cccc(Cn2cc(-c3noc(-c4ccc(C5=CCSCC5)cc4)n3)ccc2=O)c1 [Example 209, 5-{5-[4-(3,6-dihydro-2H-thiopyran-4-yl)phenyl]-1,2,4-oxadiazol-3-yl}-1-{[3-(2-methoxyethoxy)phenyl]methyl}-1,2-dihydropyridin-2-one] | < 100 nM
4 | CC(C)c1ccc(-c2nc(-c3ccc(=O)n(Cc4cccc(OCCCS(C)(=O)=O)c4)c3)no2)cc1 [Example 210, 1-{[3-(3-methanesulfonylpropoxy)phenyl]methyl}-5-{5-[4-(propan-2-yl)phenyl]-1,2,4-oxadiazol-3-yl}-1,2-dihydropyridin-2-one] | < 100 nM
5 | CS(=O)(=O)CCCOc1cccc(Cn2cc(-c3noc(-c4ccc(S(=O)(=O)C(F)(F)F)cc4)n3)ccc2=O)c1 [Example 211, 1-{[3-(3-methanesulfonylpropoxy)phenyl]methyl}-5-[5-(4-trifluoromethanesulfonylphenyl)-1,2,4-oxadiazol-3-yl]-1,2-dihydropyridin-2-one] | < 100 nM
6 | COCCOc1cccc(Cn2cc(-c3noc(-c4ccc(C5=CCOCC5)cc4)n3)ccc2=O)c1 [Example 212, 5-{5-[4-(3,6-dihydro-2H-pyran-4-yl)phenyl]-1,2,4-oxadiazol-3-yl}-1-{[3-(2-methoxyethoxy)phenyl]methyl}-1,2-dihydropyridin-2-one] | < 100 nM
7 | CC(C)(O)c1cccc(Cn2cc(-c3noc(-c4ccc(S(=O)(=O)C(F)(F)F)cc4)n3)ccc2=O)c1 [Example 213, 1-{[3-(2-hydroxypropan-2-yl)phenyl]methyl}-5-[5-(4-trifluoromethanesulfonylphenyl)-1,2,4-oxadiazol-3-yl]-1,2-dihydropyridin-2-one] | < 100 nM
8 | CC(C)(O)c1cccc(Cn2cc(-c3noc(-c4ccc(C5CCOCC5)cc4)n3)ccc2=O)c1 [Example 214, 1-{[3-(2-hydroxypropan-2-yl)phenyl]methyl}-5-{5-[4-(oxan-4-yl)phenyl]-1,2,4-oxadiazol-3-yl}-1,2-dihydropyridin-2-one] | < 100 nM
9 | COCCOc1cccc(Cn2cc(-c3nc(-c4ccc(C5(O)CCOCC5)cc4)no3)ccc2=O)c1 [Example 215, 5-{3-[4-(4-hydroxyoxan-4-yl)phenyl]-1,2,4-oxadiazol-5-yl}-1-{[3-(2-methoxyethoxy)phenyl]methyl}-1,2-dihydropyridin-2-one] | 100 to 1000 nM
10 | COCCOc1cccc(Cn2cc(-c3noc(-c4ccc(S(=O)(=O)N(C)C)cc4)n3)ccc2=O)c1 [Example 216, 4-[3-(1-{[3-(2-methoxyethoxy)phenyl]methyl}-6-oxo-1,6-dihydropyridin-3-yl)-1,2,4-oxadiazol-5-yl]-N,N-dimethylbenzene-1-sulfonamide] | 100 to 1000 nM
11 | COCCOc1cccc(Cn2cc(-c3noc(-c4ccc(S(=O)(=O)NC(C)C)cc4)n3)ccc2=O)c1 [Example 217, 4-[3-(1-{[3-(2-methoxyethoxy)phenyl]methyl}-6-oxo-1,6-dihydropyridin-3-yl)-1,2,4-oxadiazol-5-yl}-N-(propan-2-yl)benzene-1-sulfonamide] | 100 to 1000 nM
12 | COCCOc1cccc(Cn2cc(-c3noc(-c4ccc(C(=O)N(C)C)cc4)n3)ccc2=O)c1 [Example 218, 4-[3-(1-{[3-(2-methoxyethoxy)phenyl]methyl}-6-oxo-1,6-dihydropyridin-3-yl)-1,2,4-oxadiazol-5-yl]-N,N-dimethylbenzamide] | 100 to 1000 nM
13 | COCCOc1cccc(Cn2cc(-c3noc(-c4ccc(C(=O)N5CCCC5)cc4)n3)ccc2=O)c1 [Example 219, 1-{[3-(2-methoxyethoxy)phenyl]methyl}-5-{5-[4-(pyrrolidine-1-carbonyl)phenyl]-1,2,4-oxadiazol-3-yl}-1,2-dihydropyridin-2-one] | 100 to 1000 nM
14 | COCCOc1cccc(Cn2cc(-c3noc(-c4ccc(CO)cc4)n3)ccc2=O)c1 [Example 220, 5-{5-[4-(hydroxymethyl)phenyl]-1,2,4-oxadiazol-3-yl}-1-{[3-(2-methoxyethoxy)phenyl]methyl}-1,2-dihydropyridin-2-one] | 100 to 1000 nM
15 | COCCOc1cccc(Cn2cc(-c3noc(-c4ccc(S(=O)(=O)C(F)F)cc4)n3)ccc2=O)c1 [Example 221, 5-[5-(4-difluoromethanesulfonylphenyl)-1,2,4-oxadiazol-3-yl]-1-{[3-(2-methoxyethoxy)phenyl]methyl}-1,2-dihydropyridin-2-one] | < 100 nM
16 | COCCOc1cccc(Cn2cc(-c3noc(-c4ccc(C)c(C)c4)n3)ccc2=O)c1 [Example 222, 5-[5-(3,4-dimethylphenyl)-1,2,4-oxadiazol-3-yl]-1-{[3-(2-methoxyethoxy)phenyl]methyl}-1,2-dihydropyridin-2-one] | 100 to 1000 nM

Row | SMILES | IC50
17 | COCCOc1cccc(Cn2cc(-c3noc(-c4ccc5c(c4)OCO5)n3)ccc2=O)c1 [Example 223, 5-[5-(2H-1,3-benzodioxol-5-yl)-1,2,4-oxadiazol-3-yl]-1-{[3-(2-methoxyethoxy)phenyl]methyl}-1,2-dihydropyridin-2-one] | 100 to 1000 nM
18 | COCCOc1cccc(Cn2cc(-c3noc(-c4ccc5c(c4)OC(F)(F)O5)n3)ccc2=O)c1 [Example 224, 5-[5-(2,2-difluoro-2H-1,3-benzodioxol-5-yl)-1,2,4-oxadiazol-3-yl]-1-{[3-(2-methoxyethoxy)phenyl]methyl}-1,2-dihydropyridin-2-one] | < 100 nM
19 | COCCOc1cccc(Cn2cc(-c3noc(-c4ccc5[nH]ccc5c4)n3)ccc2=O)c1 [Example 225, 5-[5-(1H-indol-5-yl)-1,2,4-oxadiazol-3-yl]-1-{[3-(2-methoxyethoxy)phenyl]methyl}-1,2-dihydropyridin-2-one] | 100 to 1000 nM
20 | COCCOc1cccc(Cn2cc(-c3noc(-c4ccc(NC(C)=O)cc4)n3)ccc2=O)c1 [Example 226, N-{4-[3-(1-{[3-(2-methoxyethoxy)phenyl]methyl}-6-oxo-1,6-dihydropyridin-3-yl)-1,2,4-oxadiazol-5-yl]phenyl}acetamide] | 100 to 1000 nM
21 | COCCOc1cccc(Cn2cc(-c3noc(-c4ccc(COC)cc4)n3)ccc2=O)c1 [Example 227, 1-{[3-(2-methoxyethoxy)phenyl]methyl}-5-{5-[4-(methoxymethyl)phenyl]-1,2,4-oxadiazol-3-yl}-1,2-dihydropyridin-2-one] | < 100 nM
22 | COCCOc1cccc(Cn2cc(-c3noc(-c4ccc5c(c4)CCO5)n3)ccc2=O)c1 [Example 228, 5-[5-(2,3-dihydro-1-benzofuran-5-yl)-1,2,4-oxadiazol-3-yl]-1-{[3-(2-methoxyethoxy)phenyl]methyl}-1,2-dihydropyridin-2-one] | 100 to 1000 nM
23 | COCCOc1cccc(Cn2cc(-c3noc(-c4ccc(N5CCCC5)cc4)n3)ccc2=O)c1 [Example 229, 1-{[3-(2-methoxyethoxy)phenyl]methyl}-5-{5-[4-(pyrrolidin-1-yl)phenyl]-1,2,4-oxadiazol-3-yl}-1,2-dihydropyridin-2-one] | < 100 nM
24 | COCCOc1cccc(Cn2cc(-c3noc(-c4ccc(C(C)(C)C)cc4)n3)ccc2=O)c1 [Example 230, 5-[5-(4-tert-butylphenyl)-1,2,4-oxadiazol-3-yl]-1-{[3-(2-methoxyethoxy)phenyl]methyl}-1,2-dihydropyridin-2-one] | 100 to 1000 nM
25 | COCCOc1cccc(Cn2cc(-c3noc(-c4cnc(OC)nc4)n3)ccc2=O)c1 [Example 231, 1-{[3-(2-methoxyethoxy)phenyl]methyl}-5-[5-(2-methoxypyrimidin-5-yl)-1,2,4-oxadiazol-3-yl]-1,2-dihydropyridin-2-one] | 100 to 1000 nM
26 | COCCOc1cccc(Cn2cc(-c3noc(-c4cnc(N(C)C)nc4)n3)ccc2=O)c1 [Example 232, 5-{5-[2-(dimethylamino)pyrimidin-5-yl]-1,2,4-oxadiazol-3-yl}-1-{[3-(2-methoxyethoxy)phenyl]methyl}-1,2-dihydropyridin-2-one] | < 100 nM
27 | COCCOc1cccc(Cn2cc(-c3noc(-c4ccc(S(=O)(=O)CC(C)C)cc4)n3)ccc2=O)c1 [Example 233, 1-{[3-(2-methoxyethoxy)phenyl]methyl}-5-{5-[4-(2-methylpropanesulfonyl)phenyl]-1,2,4-oxadiazol-3-yl}-1,2-dihydropyridin-2-one] | < 100 nM
28 | CCCNS(=O)(=O)c1ccc(-c2nc(-c3ccc(=O)n(Cc4cccc(OCCOC)c4)c3)no2)cc1 [Example 234, 4-[3-(1-{[3-(2-methoxyethoxy)phenyl]methyl}-6-oxo-1,6-dihydroylpyridin-3-yl)-1,2,4-oxadiazol-5-yl]-N-propylbenzene-1-sulfonamide] | 100 to 1000 nM
29 | COCCOc1cccc(Cn2cc(-c3noc(-c4ccc(S(=O)(=O)C(C)C)cc4)n3)ccc2=O)c1 [Example 235, 1-{[3-(2-methoxyethoxy)phenyl]methyl}-5-{5-[4-(propane-2-sulfonyl)phenyl]-1,2,4-oxadiazol-3-yl}-1,2-dihydropyridin-2-one] | 100 to 1000 nM
30 | COCCOc1cccc(Cn2cc(-c3noc(-c4ccc(CC(C)C)cc4)n3)ccc2=O)c1 [Example 236, 1-{[3-(2-methoxyethoxy)phenyl]methyl}-5-{5-[4-(2-methylpropyl)phenyl]-1,2,4-oxadiazol-3-yl}-1,2-dihydropyridin-2-one] | < 100 nM
31 | COCCOc1cccc(Cn2cc(-c3noc(-c4ccc(S(=O)(=O)CCOC)cc4)n3)ccc2=O)c1 [Example 237, 5-{5-[4-(2-methoxyethanesulfonyl)phenyl]-1,2,4-oxadiazol-3-yl}-1-{[3-(2-methoxyethoxy)phenyl]methyl}-1,2-dihydropyridin-2-one] | 100 to 1000 nM
32 | COCCOc1cccc(Cn2cc(-c3noc(-c4cnc(N5CCCC5)nc4)n3)ccc2=O)c1 [Example 238, 1-{[3-(2-methoxyethoxy)phenyl]methyl}-5-{5-[2-(pyrrolidin-1-yl)pyrimidin-5-yl]-1,2,4-oxadiazol-3-yl}-1,2-dihydropyridin-2-one] | < 100 nM
